Reference: paper PMC9851200, “Multiparameter phenotypic screening for endogenous TFEB and TFE3 translocation identifies novel chemical series modulating lysosome function” (Autophagy, 2022)
Where two headings read alike, the source gives them in different places.

Tests used:
Type in all cases: binding
[1] = biological target: T1, cellular kinases of SH-SY5Y cells (Homo sapiens, UniProt Q8IVH8); test: biochemical; conditions: 2µM, SH-SY5Y cells, read-out: KiNativ in-cell binding, % Inhibition, MAP4K3
T1 construct: endogenous in cells; host or cells: SH-SY5Y
T1 sequence (Q8IVH8 whole entry): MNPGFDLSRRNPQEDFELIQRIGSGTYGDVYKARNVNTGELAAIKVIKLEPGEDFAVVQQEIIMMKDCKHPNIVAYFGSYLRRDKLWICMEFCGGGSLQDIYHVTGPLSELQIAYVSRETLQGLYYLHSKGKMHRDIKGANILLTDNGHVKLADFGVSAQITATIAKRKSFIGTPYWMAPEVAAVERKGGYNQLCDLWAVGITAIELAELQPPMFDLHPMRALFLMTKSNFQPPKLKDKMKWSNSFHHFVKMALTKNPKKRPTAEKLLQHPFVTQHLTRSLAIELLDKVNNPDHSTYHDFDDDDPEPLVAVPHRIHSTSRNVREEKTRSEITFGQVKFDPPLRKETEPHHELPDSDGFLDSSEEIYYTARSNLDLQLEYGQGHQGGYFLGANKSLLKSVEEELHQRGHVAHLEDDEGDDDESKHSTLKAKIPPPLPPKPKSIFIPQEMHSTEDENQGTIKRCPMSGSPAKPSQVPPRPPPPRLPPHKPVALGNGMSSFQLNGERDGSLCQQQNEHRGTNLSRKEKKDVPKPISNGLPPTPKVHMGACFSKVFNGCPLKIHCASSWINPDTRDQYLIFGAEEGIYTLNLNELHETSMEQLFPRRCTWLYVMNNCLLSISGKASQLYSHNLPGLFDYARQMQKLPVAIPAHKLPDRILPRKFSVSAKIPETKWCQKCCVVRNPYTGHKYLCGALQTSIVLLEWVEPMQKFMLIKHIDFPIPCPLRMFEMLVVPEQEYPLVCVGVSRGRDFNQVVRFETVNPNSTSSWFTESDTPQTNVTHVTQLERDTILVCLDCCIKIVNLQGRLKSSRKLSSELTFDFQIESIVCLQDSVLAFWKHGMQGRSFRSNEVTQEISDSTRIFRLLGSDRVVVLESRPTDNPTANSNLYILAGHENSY
Source text: (§1) As KINOMEscan is an in vitro assay, and as different cell types have variable kinase expression profiles we sought to determine the kinase binding profile in our SH-SY5Y TFEB-relocalization cell model. […] Bound kinases were pulled down and analyzed by mass spectrometry to determine the in situ kinase binding profile for each compound.

[2] = biological target: cellular kinases of SH-SY5Y cells (Homo sapiens, UniProt P43405); test: biochemical
Source text: as §1

[3] = biological target: cellular kinases of SH-SY5Y cells (Homo sapiens, UniProt P24941); test: biochemical; conditions: 2µM, SH-SY5Y cells
Source text: as §1

[4] = biological target: T2, cellular kinases of SH-SY5Y cells (Homo sapiens, UniProt Q86SG6); test: biochemical; conditions: 2µM; SH-SY5Y cells; Labeling Site Lys2; DLKTQNILLDK; read-out: KiNativ in-cell binding, % Inhibition, NEK9/NEK8
T2 construct: endogenous in cells; host or cells: SH-SY5Y
Source text: as §1

[5] = biological target: cellular kinases of SH-SY5Y cells (Homo sapiens, UniProt P50613); test: biochemical; conditions: 2µM; SH-SY5Y cells; Labeling Site Lys2; DLKPNNLLLDENGVLK; read-out: KiNativ in-cell binding, % Inhibition, CDK7
Source text: as §1

[6] = biological target: cellular kinases of SH-SY5Y cells (Homo sapiens, UniProt O00418); test: biochemical; conditions: 2µM; SH-SY5Y cells; Labeling Site ATP; YIKYNSNSGFVR; read-out: KiNativ in-cell binding, % Inhibition, eEF2K
Source text: as §1

[7] = biological target: cellular kinases of SH-SY5Y cells (Homo sapiens, UniProt Q2M2I8); test: biochemical; conditions: 2µM; SH-SY5Y cells; labeling site Lys2; peptide DLKVENILLHDR
Source text: as §1

[8] = biological target: cellular kinases of SH-SY5Y cells (Homo sapiens, UniProt P51617); test: biochemical; conditions: 2µM; SH-SY5Y cells; labeling site Lys2; peptide AIQFLHQDSPSLIHGDIKSSNVLLDER
Chain of cellular kinases of SH-SY5Y cells (Homo sapiens, UniProt P51617) (P51617 whole entry): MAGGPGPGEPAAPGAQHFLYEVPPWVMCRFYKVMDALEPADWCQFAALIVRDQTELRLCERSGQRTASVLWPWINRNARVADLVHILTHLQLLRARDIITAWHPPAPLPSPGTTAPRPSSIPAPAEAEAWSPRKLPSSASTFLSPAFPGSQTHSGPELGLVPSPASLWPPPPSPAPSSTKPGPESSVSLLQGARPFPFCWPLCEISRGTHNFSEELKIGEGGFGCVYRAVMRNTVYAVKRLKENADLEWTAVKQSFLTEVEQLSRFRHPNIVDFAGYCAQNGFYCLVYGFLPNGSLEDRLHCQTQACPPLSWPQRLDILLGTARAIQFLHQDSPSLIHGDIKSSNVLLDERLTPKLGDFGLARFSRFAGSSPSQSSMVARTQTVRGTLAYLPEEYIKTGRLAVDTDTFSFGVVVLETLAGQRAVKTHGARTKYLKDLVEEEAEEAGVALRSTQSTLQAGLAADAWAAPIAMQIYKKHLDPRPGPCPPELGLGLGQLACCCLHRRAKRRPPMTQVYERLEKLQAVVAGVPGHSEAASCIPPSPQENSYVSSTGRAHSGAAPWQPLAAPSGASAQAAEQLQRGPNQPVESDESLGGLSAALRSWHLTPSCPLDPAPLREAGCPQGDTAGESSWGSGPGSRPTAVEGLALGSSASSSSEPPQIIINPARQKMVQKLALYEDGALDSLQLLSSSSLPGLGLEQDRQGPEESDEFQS
Source text: as §1

[9] = biological target: cellular kinases of SH-SY5Y cells (Homo sapiens, UniProt Q8NEB9); test: biochemical; conditions: 2µM, SH-SY5Y cells
Chain of cellular kinases of SH-SY5Y cells (Homo sapiens, UniProt Q8NEB9) (Q8NEB9 whole entry): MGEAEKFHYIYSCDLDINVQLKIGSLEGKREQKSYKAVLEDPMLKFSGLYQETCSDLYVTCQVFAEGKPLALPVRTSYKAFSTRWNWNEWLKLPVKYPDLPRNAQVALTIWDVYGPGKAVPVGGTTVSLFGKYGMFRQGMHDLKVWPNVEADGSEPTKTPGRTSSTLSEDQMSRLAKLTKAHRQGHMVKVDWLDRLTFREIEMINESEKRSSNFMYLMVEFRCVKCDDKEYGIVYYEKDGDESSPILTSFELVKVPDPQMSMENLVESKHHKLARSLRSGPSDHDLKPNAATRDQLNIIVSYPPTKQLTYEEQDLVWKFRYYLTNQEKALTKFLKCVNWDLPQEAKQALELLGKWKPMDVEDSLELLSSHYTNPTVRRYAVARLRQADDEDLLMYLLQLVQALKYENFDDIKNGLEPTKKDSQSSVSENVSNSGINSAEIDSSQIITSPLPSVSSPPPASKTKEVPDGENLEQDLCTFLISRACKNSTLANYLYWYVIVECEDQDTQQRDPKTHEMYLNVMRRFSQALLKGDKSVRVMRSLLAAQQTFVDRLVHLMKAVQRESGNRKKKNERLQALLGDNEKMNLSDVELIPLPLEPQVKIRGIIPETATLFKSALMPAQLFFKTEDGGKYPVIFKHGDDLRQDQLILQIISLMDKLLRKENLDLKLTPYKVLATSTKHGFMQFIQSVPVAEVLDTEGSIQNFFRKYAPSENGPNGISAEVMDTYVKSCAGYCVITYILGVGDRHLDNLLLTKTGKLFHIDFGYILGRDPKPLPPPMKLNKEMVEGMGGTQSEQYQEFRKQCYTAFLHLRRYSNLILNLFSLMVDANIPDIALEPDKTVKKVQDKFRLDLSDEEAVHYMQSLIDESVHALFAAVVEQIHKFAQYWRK
Source text: as §1

[10] = biological target: cellular kinases of SH-SY5Y cells (Homo sapiens, UniProt Q99683); test: biochemical; conditions: 2µM; SH-SY5Y cells; Labeling Site Lys2; DIKGDNVLINTYSGVLK; read-out: KiNativ in-cell binding, % Inhibition, MAP3K5
Source text: as §1

[11] = biological target: cellular kinases of SH-SY5Y cells (Homo sapiens, UniProt Q13043); test: biochemical; conditions: 2µM; SH-SY5Y cells; Labeling Site Lys1; ETGQIVAIKQVPVESDLQEIIK; read-out: KiNativ in-cell binding, % Inhibition, STK4/MST1
Source text: as §1

[12] = biological target: cellular kinases of SH-SY5Y cells (Homo sapiens, UniProt P54760); test: biochemical; conditions: 2µM; SH-SY5Y cells; Labeling Site Activation Loop; FLEENSSDPTYTSSLGGKIPIR; read-out: KiNativ in-cell binding, % Inhibition, EphB4
Source text: as §1

[13] = biological target: T3, cellular kinases of SH-SY5Y cells (Homo sapiens, UniProt Q9UHD2); test: biochemical; conditions: 2µM; SH-SY5Y cells; labeling site Lys1; peptide TGDLFAIKVFNNISFLRPVDVQMR
T3 construct: endogenous in cells; host or cells: SH-SY5Y
Source text: as §1

[14] = biological target: T4, cellular kinases of SH-SY5Y cells (Homo sapiens, UniProt Q15831); test: biochemical; conditions: 2µM; SH-SY5Y cells; Labeling Site Lys2; DIKPGNLLLTTGGTLK; read-out: KiNativ in-cell binding, % Inhibition, STK11/LKB1
T4 construct: endogenous in cells; host or cells: SH-SY5Y
T4 sequence (Q15831 whole entry): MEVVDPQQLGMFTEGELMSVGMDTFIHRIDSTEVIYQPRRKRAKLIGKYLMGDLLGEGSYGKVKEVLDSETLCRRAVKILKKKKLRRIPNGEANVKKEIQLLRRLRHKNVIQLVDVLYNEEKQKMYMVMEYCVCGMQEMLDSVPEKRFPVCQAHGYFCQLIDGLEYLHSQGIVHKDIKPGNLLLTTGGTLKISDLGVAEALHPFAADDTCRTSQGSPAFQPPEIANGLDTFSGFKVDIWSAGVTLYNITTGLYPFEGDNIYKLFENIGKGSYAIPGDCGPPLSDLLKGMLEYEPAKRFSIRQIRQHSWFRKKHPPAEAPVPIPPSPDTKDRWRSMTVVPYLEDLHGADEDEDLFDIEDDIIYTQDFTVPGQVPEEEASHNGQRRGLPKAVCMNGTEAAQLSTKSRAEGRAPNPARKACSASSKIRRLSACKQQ
Source text: as §1

[15] = biological target: cellular kinases of SH-SY5Y cells (Homo sapiens, UniProt P29317); test: biochemical; conditions: 2µM; SH-SY5Y cells; Labeling Site Activation Loop; VLEDDPEATYTTSGGKIPIR; read-out: KiNativ in-cell binding, % Inhibition, EphA2
Chain of cellular kinases of SH-SY5Y cells (Homo sapiens, UniProt P29317) (P29317 24-976): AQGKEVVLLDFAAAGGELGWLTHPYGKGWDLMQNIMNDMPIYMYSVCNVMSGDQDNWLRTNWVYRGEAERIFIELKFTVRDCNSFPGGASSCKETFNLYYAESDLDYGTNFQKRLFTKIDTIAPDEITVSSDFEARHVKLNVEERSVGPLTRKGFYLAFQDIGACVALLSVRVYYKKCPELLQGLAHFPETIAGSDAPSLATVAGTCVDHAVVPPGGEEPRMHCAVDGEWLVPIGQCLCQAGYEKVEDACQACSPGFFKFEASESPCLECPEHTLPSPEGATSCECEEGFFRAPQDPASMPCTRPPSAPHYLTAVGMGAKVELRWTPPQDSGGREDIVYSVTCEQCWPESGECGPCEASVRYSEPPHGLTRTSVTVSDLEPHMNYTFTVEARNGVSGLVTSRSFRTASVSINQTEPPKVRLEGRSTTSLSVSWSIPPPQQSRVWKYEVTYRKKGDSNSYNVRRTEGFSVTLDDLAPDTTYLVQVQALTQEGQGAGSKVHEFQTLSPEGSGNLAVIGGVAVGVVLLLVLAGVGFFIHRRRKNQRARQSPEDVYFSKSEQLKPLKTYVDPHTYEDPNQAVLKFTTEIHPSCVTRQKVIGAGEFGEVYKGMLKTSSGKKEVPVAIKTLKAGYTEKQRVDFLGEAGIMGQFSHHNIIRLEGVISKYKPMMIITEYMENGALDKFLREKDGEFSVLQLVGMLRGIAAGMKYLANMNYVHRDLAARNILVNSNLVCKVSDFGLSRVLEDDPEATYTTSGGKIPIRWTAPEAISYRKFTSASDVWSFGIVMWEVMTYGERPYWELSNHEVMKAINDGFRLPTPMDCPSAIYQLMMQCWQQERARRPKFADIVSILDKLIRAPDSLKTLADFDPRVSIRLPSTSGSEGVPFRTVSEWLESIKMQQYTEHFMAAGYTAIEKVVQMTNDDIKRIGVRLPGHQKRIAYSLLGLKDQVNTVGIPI
Source text: as §1

[16] = biological target: T5, cellular kinases of SH-SY5Y cells (Homo sapiens, UniProt O75385); test: biochemical; conditions: 2µM; SH-SY5Y cells; Labeling Site Lys2; DLKPQNILLSNPAGR; read-out: KiNativ in-cell binding, % Inhibition, ULK1
T5 construct: endogenous in cells; host or cells: SH-SY5Y
Source text: as §1

[17] = biological target: cellular kinases of SH-SY5Y cells (Homo sapiens, UniProt P50750); test: biochemical; conditions: 2µM, SH-SY5Y cells, read-out: KiNativ in-cell binding, % Inhibition, CDK9
Chain of cellular kinases of SH-SY5Y cells (Homo sapiens, UniProt P50750) (P50750 whole entry): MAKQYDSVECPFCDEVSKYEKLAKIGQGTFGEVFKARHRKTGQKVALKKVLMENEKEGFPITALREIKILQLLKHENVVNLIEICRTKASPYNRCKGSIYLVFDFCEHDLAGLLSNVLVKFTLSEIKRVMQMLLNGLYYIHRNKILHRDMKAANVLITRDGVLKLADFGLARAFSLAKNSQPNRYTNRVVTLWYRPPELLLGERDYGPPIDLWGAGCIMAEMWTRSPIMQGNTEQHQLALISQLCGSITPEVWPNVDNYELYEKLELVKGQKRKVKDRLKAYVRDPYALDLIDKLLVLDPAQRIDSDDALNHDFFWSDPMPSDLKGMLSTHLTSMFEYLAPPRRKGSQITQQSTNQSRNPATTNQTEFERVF
Source text: as §1

[18] = biological target: T6, cellular kinases of SH-SY5Y cells (Homo sapiens, UniProt Q13523); test: biochemical; conditions: 2µM; SH-SY5Y cells; Labeling Site Lys2; CNILHADIKPDNILVNESK; read-out: KiNativ in-cell binding, % Inhibition, PRPF4B
T6 construct: endogenous in cells; host or cells: SH-SY5Y
Source text: as §1

MAPK10/JNK3 = MAPK10/JNK3 (Homo sapiens, UniProt P53779)
Chain of MAPK10/JNK3 (P53779 whole entry): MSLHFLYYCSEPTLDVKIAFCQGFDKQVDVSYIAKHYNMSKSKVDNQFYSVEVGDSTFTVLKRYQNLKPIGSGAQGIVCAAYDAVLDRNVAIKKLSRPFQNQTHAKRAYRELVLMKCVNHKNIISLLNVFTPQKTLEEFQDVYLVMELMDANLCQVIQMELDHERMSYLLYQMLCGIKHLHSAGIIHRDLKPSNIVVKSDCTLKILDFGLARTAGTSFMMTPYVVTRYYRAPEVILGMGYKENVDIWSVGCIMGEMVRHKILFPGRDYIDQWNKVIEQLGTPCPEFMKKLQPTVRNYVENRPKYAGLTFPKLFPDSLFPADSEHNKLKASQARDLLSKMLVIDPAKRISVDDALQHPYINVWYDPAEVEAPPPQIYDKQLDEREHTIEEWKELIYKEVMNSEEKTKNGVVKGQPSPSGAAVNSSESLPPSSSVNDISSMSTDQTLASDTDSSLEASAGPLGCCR

In the case of `Cc1cccc(-c2nc(Nc3ccc4ncsc4c3)c3ccccc3n2)n1` [NK140], the inhibition at 2 µM ([1]; Labeling Site Lys1, NVNTGELAAIKVIK) was 29.8%, the inhibition at 2 µM ([1]; Labeling Site Lys2, DIKGANILLTDNGHVK) was 20.5% and the “KiNativ in-cell binding, SYK” value [2] was -121.1. The inhibition at 2 µM ([2]; 2µM, SH-SY5Y cells, Labeling Site Activation Loop, AQTHGKWPVK, read-out: KiNativ in-cell binding, % Inhibition, SYK) was 0.443%, the “KiNativ in-cell binding, SYK” value ([2]; 2µM, SH-SY5Y cells, labeling site Activation Loop, peptide ISDFGLSKALR) was -15.0 and the inhibition at 2 µM ([3]; Labeling Site Lys1, LTGEVVALKK, read-out: KiNativ in-cell binding, % Inhibition, CDK2) was 21.6%. For the same compound, the “KiNativ in-cell binding, CDK2” value ([3]; labeling site Lys2, peptide DLKPQNLLINTEGAIK) was 6.0, the inhibition at 2 µM [4] was 15.8% and the inhibition at 2 µM [5] was 56.5%. For the same compound, the inhibition at 2 µM [6] was 26%, the “KiNativ in-cell binding, AAK1” value [7] was -42.8 and the “KiNativ in-cell binding, IRAK1” value [8] was -26.5. For the same compound, the inhibition at 2 µM ([9]; Labeling Site ATP, TEDGGKYPVIFKHGDDLRQDQLILQIISLMDK, read-out: KiNativ in-cell binding, % Inhibition, PIK3C3) was -69%, the “KiNativ in-cell binding, PIK3C3” value ([9]; labeling site ATP, peptide TEDGGKYPVIFKHGDDLR) was -30.4 and the inhibition at 2 µM [10] was 18.7%. The inhibition at 2 µM [11] was 39%, the inhibition at 2 µM [12] was -33.5% and the “KiNativ in-cell binding, TBK1” value [13] was -253.9. It also gave an inhibition at 2 µM [14] of 58%, an inhibition at 2 µM [15] of 1.2% and an inhibition at 2 µM [16] of -13.4%. For the same compound, the inhibition at 2 µM ([17]; Labeling Site ATP Loop, IGQGTFGEVFKAR) was 2.1%, the inhibition at 2 µM ([17]; Labeling Site Lys2, DMKAANVLITR) was -6% and the inhibition at 2 µM [18] was 32.3%.
`Cc1cccc(-c2nc(N(C)c3ccc4ncsc4c3)c3ccccc3n2)n1` [NK-161] was tested, and the “KINOMEscan MAPK10/JNK3” value (MAPK10/JNK3) was 16.
